Tests used:
[1] = biological target: T1, OxyAkis ([Actinomadura] parvosata, UniProt A0A1V0AG67); experiment: UV-visible difference spectroscopy titration, one-site model; format: binding
T1 construct: gene BKM31_54160; pET28a, His-tagged, expressed in E. coli Arctic Express; Ni-NTA, anion exchange, size exclusion

[2] = biological target: T2, OxyCkis; experiment: as above; format: binding; conditions: 50 mM Tris-HCl pH 8, 30°C; 2.5 µM enzyme
T2 construct: gene OxyC; recombinant, expressed in E. coli Arctic Express; Ni-NTA, anion exchange, size exclusion

T1 sequence (A0A1V0AG67 entry or part of it): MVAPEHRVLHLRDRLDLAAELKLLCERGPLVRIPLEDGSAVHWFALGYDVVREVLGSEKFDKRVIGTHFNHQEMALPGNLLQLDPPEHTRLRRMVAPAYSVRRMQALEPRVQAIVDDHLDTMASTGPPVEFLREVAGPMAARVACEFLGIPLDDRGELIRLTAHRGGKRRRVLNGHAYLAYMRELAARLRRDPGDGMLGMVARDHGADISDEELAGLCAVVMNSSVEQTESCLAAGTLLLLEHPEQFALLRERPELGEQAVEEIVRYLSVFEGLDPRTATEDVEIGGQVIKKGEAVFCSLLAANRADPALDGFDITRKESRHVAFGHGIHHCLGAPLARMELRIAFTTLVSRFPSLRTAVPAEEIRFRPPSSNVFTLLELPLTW

c1c[nH]cn1 [imidazole]
Kd [1]: 120 µM | Kd [2]: 84 µM

— article PMC9023744, “The Cytochrome P450 OxyA from the Kistamicin Biosynthesis Cyclization Cascade is Highly Sensitive to Oxidative Damage” (Frontiers in Chemistry, 2022)
